Experimental data as given in PubChem BioAssay (NCI).
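Cells were grown in 96-well plates and exposed to each compound for 48 hours at five concentrations; endpoints were interpolated linearly between bracketing concentrations, or set to the highest concentration if not reached. GI50 = concentration required for 50% inhibition of growth. TGI is the concentration that stops growth completely.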

Legend:
Assay in all cases: NCI-60 cell line screen, 48 h
XF 498 CNS = system: XF 498 CNS
RXF-631 renal = system: RXF-631 renal
HOP-18 NSCLC = system: HOP-18 NSCLC
KM20L2 colon = system: KM20L2 colon

| SMILES | TGI (XF 498 CNS) | TGI (RXF-631 renal) | TGI (HOP-18 NSCLC) | TGI (KM20L2 colon) | GI50 (KM20L2 colon) |
| --- | --- | --- | --- | --- | --- |
| O=C1c2ccccc2C(=O)c2c1cc(S(=O)(=O)O)c(O)c2O | 32.6 µM | > 100 µM | – | – | – |
| O=S(=O)(O)C1=C2Sc3ccccc3N=C2c2ccccc2C1 | 31.8 µM | 29.5 µM | 25.2 µM | 34.3 µM | – |
| [Cl-].[Rh+3].c1cnc2c(c1)ccc1cccnc12.c1cnc2c(c1)ccc1cccnc12.c1cnc2c(c1)ccc1cccnc12 | – | – | – | > 100 µM | > 100 µM |
| O=C(N/N=C/C=C/c1ccccc1)[C@H](O)[C@@H](O)C(=O)N/N=C/C=C/c1ccccc1 | – | – | – | > 100 µM | – |
| c1nc(N2CC2)c2cnn(C3CCCCO3)c2n1 (centres undefined) | > 100 µM | – | – | > 100 µM | – |
| COc1ccc2c(c1)C(=O)Cc1ccccc1CC2 | > 100 µM | – | > 100 µM | > 100 µM | – |
